In patent US20230348506A1, “MACROCYCLIC PANTETHEINE DERIVATIVES AND USES THEREOF” (VectivBio Comet AG, priority 2019, published 2023):

Tested on: CD14+ monocytes differentiated to M1 macrophages
Assay: M1 differentiation assay (IL6 by ELISA)
Assay type: cell-based, human
Conditions: 10 μM compound
Experimental: Monocytes were isolated by positive isolation with CD14+ microbeads (Miltenyi, 130-050-201). Monocytes were 99% viable and were 96% purity as analyzed by FACS and CD14+ (BD, 563561). 100,000 monocytes along with compounds at the dose of 10 and 50 μM were allowed to differentiate to macrophages with 10 ng/ml GMCSF (R&D, 15-GM-050/CF) in RPMI complete media (Invitrogen, 22400089) with 15% FBS (Hyclone SV30087.03) and 1% Penicillin-Streptomycin (Gibco, 15140-122). On day 2 and 4 half the media was refreshed with fresh GM-CSF and compounds at 10 and 50 μM dose. On day 6 the macrophages were matured with GMCSF, IFNγ (R&D 285-IF-100/CF) and LPS (Sigma, L6143) in the presence of 10 μM and 50 μM of compounds. After 24 h, supernatant was collected for the measurement of TNFα (DKW, 1117202) IL6 (DKW, 1110602), IL10 (DKW, 1110003) by ELISA. Macrophages were detached gently on ice with EDTA (Invitrogen, 15575-038) and analyzed by FACS (BD LSR Fortessa, 853492). […]

SMILES: CC1(C)COC(=O)CCC(=O)SCCNC(=O)CCNC(=O)[C@@H]1O [Compound 206, (R)-15-hydroxy-16,16-dimethyl-1-oxa-6-thia-9,13-diazacycloheptadecane-2,5,10,14-tetraone]
- decrease of levels of IL-6 protein: at least 40%
